In experiment [1] the target is T1, RBA1 (rice bran lectin 1) (Oryza sativa, UniProt Q0JF21).
T1 construct: gene Os04g0173800; disulfide-linked heterodimer of 20- and 12-kDa subunits, 32-33 kDa
T1 sequence (Q0JF21 29-122): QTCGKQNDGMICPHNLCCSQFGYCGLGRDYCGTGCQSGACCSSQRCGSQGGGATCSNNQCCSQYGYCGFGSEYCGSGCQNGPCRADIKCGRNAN
T1 sequence (Q0JF21 123-201): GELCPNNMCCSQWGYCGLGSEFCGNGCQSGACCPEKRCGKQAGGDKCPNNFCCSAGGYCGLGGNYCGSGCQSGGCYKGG
The experiment is described as follows: hemagglutination inhibition (rabbit erythrocytes). The format is biochemical. Conditions: pH 7.5, room temperature, 2-fold serial dilution. The text has this: hemagglutination inhibition (rabbit erythrocytes) on RBA1 (rice bran lectin 1)

Experiment [2] addresses T2, RBA2 (rice bran lectin 2) (Oryza sativa, UniProt Q0JF21).
T2 construct: gene Os04g0173800; noncovalent homodimer of 12-kDa subunits, 25 kDa
T2 sequence (Q0JF21 123-201): T1 sequence (Q0JF21 123-201)
The experiment is described as follows: hemagglutination inhibition (rabbit erythrocytes). The settings on record: pH 7.5, room temperature, 2-fold serial dilution. It is filed as biochemical. The text has this:
hemagglutination inhibition (rabbit erythrocytes) on RBA2 (rice bran lectin 2)

For experiment [3], the target named is T3, bovine serum albumin (BSA) (Bos taurus, UniProt P02769).
T3 construct: gene ALB
The experiment is described as follows: frontal affinity chromatography, immobilised protein. The format is binding. The settings on record: pH 7.3, 25 °C, EDTA-PB.

Each structure is given as a SMILES string.

T3 sequence (P02769 25-607): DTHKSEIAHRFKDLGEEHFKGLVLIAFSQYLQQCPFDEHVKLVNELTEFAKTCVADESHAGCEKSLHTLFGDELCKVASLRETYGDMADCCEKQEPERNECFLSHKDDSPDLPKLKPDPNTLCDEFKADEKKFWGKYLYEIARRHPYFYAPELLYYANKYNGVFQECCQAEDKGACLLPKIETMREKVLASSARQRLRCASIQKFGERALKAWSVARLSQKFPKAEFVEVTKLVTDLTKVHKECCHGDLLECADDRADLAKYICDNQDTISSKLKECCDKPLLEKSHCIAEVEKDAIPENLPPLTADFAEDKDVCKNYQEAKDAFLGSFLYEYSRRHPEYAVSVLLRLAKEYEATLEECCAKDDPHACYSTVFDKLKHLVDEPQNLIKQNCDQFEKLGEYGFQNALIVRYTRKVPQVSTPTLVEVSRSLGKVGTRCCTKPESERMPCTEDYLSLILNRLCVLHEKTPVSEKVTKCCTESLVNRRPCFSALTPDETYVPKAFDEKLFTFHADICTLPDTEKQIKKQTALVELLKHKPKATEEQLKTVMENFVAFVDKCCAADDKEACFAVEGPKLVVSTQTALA

Turning to `CC(=O)N[C@H]1[C@H](O[C@H]2[C@H](O)[C@@H](NC(C)=O)C(O)O[C@@H]2CO)O[C@H](CO)[C@@H](O)[C@@H]1O` (stereo partly shown) [Di-N-acetylchitobiose], the “RBA1” value in experiment [1] was 0.78 mM. For the same molecule, the “RBA2” value in experiment [2] is 6.25 mM.

In the case of `CC(=O)N[C@H]1C(O)O[C@H](CO)[C@H](O)[C@@H]1O` (stereo partly drawn) [N-Acetyl D-galactosamine], in experiment [2], the “RBA2” value came to 50 mM.

In the case of `N[C@H]1[C@H](O[C@H]2[C@H](O)[C@@H](N)C(O)O[C@@H]2CO)O[C@H](CO)[C@@H](O)[C@@H]1O` (stereo partly shown) [Chitobiose], in experiment [1], the “RBA1” value was 100 mM.

Consider `CC(=O)N[C@H]1[C@H](O[C@H]2[C@H](O)[C@@H](NC(C)=O)[C@H](O[C@H]3[C@H](O)[C@@H](NC(C)=O)C(O)O[C@@H]3CO)O[C@@H]2CO)O[C@H](CO)[C@@H](O[C@@H]2O[C@H](CO)[C@@H](O[C@@H]3O[C@H](CO)[C@@H](O[C@@H]4O[C@H](CO)[C@@H](O)[C@H](O)[C@H]4NC(C)=O)[C@H](O)[C@H]3NC(C)=O)[C@H](O)[C@H]2NC(C)=O)[C@@H]1O` (stereo partly shown) [Hexa-N-acetylchitohexaose], for which the “RBA1” value in experiment [1] worked out at 0.04 mM. Also, the hemagglutination inhibition concentration in experiment [2] stood at 0.04 mM.

Turning to `CC(=O)N[C@H]1[C@H](O[C@H]2[C@H](O)[C@@H](NC(C)=O)[C@H](O[C@H]3[C@H](O)[C@@H](NC(C)=O)C(O)O[C@@H]3CO)O[C@@H]2CO)O[C@H](CO)[C@@H](O[C@@H]2O[C@H](CO)[C@@H](O[C@@H]3O[C@H](CO)[C@@H](O)[C@H](O)[C@H]3NC(C)=O)[C@H](O)[C@H]2NC(C)=O)[C@@H]1O` (stereo partly shown) [Penta-N-acetylchitopentaose], the “RBA1” value in experiment [1] came to 0.02 mM. Further, the “RBA2” value in experiment [2] amounted to 0.04 mM.

Take `COC(=O)c1ccccc1-c1c2ccc(=N)cc-2oc2cc(N)ccc12` [Rhodamine 123]: in experiment [3], the “V - V0” value is listed as “BSA showed a similar interaction with RH”.

For the molecule `N[C@H]1C(O)O[C@H](CO)[C@@H](O)[C@@H]1O` (stereo partly drawn) [D-Glucosamine], in experiment [1], the “RBA1” value is more than 200 mM. In experiment [2], the “RBA2” value is on record as 3.1 mM.

In the case of `CC(=O)N[C@H]1C(O)O[C@H](CO)[C@@H](O)[C@@H]1O` (stereo partly drawn) [N-Acetyl D-glucosamine], the “RBA1” value in experiment [1] was found to be 25 mM. Moreover, the “RBA2” value in experiment [2] is reported as 50 mM.

With `N[C@H]1C(O)O[C@H](CO)[C@H](O)[C@@H]1O` (stereo partly drawn) [D-Galactosamine], the “RBA1” value in experiment [1] was more than 200 mM. The “RBA2” value in experiment [2] is on record as 0.8 mM.

With `CC(=O)N[C@H]1[C@H](O[C@H]2[C@H](O)[C@@H](NC(C)=O)C(O)O[C@@H]2CO)O[C@H](CO)[C@@H](O[C@@H]2O[C@H](CO)[C@@H](O[C@@H]3O[C@H](CO)[C@@H](O)[C@H](O)[C@H]3NC(C)=O)[C@H](O)[C@H]2NC(C)=O)[C@@H]1O` (stereo partly shown) [Tetra-N-acetylchitotetraose], the “RBA1” value in experiment [1] came to 0.04 mM. Further, the hemagglutination inhibition concentration in experiment [2] was determined as 0.04 mM.

Turning to `CC(=O)N[C@H]1[C@H](O[C@H]2[C@H](O)[C@@H](NC(C)=O)C(O)O[C@@H]2CO)O[C@H](CO)[C@@H](O[C@@H]2O[C@H](CO)[C@@H](O)[C@H](O)[C@H]2NC(C)=O)[C@@H]1O` (stereo partly shown) [Tri-N-acetylchitotriose], the “RBA1” value in experiment [1] turned out to be 0.09 mM. Besides, the “RBA2” value in experiment [2] is on record as 0.39 mM.

(Values after paper PMC5454964, “Isolation of Rice Bran Lectins and Characterization of Their Unique Behavior in Caco-2 Cells” (International Journal of Molecular Sciences, 2017).)
